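Cells were grown in 96-well plates and exposed to each compound for 48 hours at five concentrations; endpoints were interpolated linearly between bracketing concentrations, or set to the highest concentration if not reached. TGI: total growth inhibition.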
How the values were obtained:
Assay in all cases: NCI-60 cell line screen, 48 h
[1] = tested on: EKVX NSCLC
[2] = tested on: HL-60(TB) leukemia
[3] = tested on: CCRF-CEM leukemia
[4] = tested on: COLO 205 colon
[5] = tested on: MOLT-4 leukemia
[6] = tested on: NCI-H226 lung
[7] = tested on: SW-620 colon
[8] = tested on: HOP-92 NSCLC
[9] = tested on: SK-MEL-28 melanoma
[10] = tested on: HCT-15 colon
[11] = tested on: NCI-H460 lung
[12] = tested on: SK-OV-3 ovarian
[13] = tested on: UO-31 renal
[14] = tested on: SK-MEL-2 melanoma
[15] = tested on: NCI-H522 lung
[16] = tested on: TK-10 renal
[17] = tested on: M14 melanoma
[18] = tested on: MDA-MB-231 breast
[19] = tested on: RPMI-8226 leukemia
[20] = tested on: 786-0 renal
[21] = tested on: CAKI-1 renal
[22] = tested on: T-47D breast
[23] = tested on: MALME-3M melanoma
[24] = tested on: NCI-H23 lung
[25] = tested on: OVCAR-5 ovarian
[26] = tested on: MDA-N
[27] = tested on: SF-539 CNS
[28] = tested on: KM12 colon
[29] = tested on: MCF7 breast
[30] = tested on: BT-549 breast
[31] = tested on: OVCAR-8 ovarian
[32] = tested on: NCI/ADR-RES ovarian
[33] = tested on: IGROV1 ovarian
[34] = tested on: A549 NSCLC
[35] = tested on: HOP-62 NSCLC
[36] = tested on: UACC-257 melanoma
[37] = tested on: SK-MEL-5 melanoma
[38] = tested on: HT29 colon
[39] = tested on: OVCAR-3 ovarian
[40] = tested on: UACC-62 melanoma
[41] = tested on: HS 578T breast
[42] = tested on: OVCAR-4 ovarian
[43] = tested on: SNB-75 CNS
[44] = tested on: PC-3 prostate
[45] = tested on: A498 renal
[46] = tested on: HCT-116 colon
[47] = tested on: SF-295 CNS
[48] = tested on: U251 CNS
[49] = tested on: MDA-MB-435
[50] = tested on: SR leukemia
[51] = tested on: LOX IMVI melanoma
[52] = tested on: DU-145 prostate
[53] = tested on: ACHN renal
[54] = tested on: K-562 leukemia
[55] = tested on: RXF 393 renal
[56] = tested on: SF-268 CNS
[57] = tested on: SN12C renal
[58] = tested on: HCC-2998 colon
[59] = tested on: SNB-19 CNS

## COc1ccc(/C=C/c2cnc3ccccc3n2)cc1OC
[1]
  TGI: > 100 µM
[2]
  TGI: > 100 µM
[3]
  TGI: > 100 µM
[4]
  TGI: > 100 µM
[5]
  TGI: > 100 µM
[6]
  TGI: > 100 µM
[7]
  TGI: > 100 µM
[8]
  TGI: > 100 µM
[9]
  TGI: > 100 µM
[10]
  TGI: > 100 µM
[11]
  TGI: > 100 µM
[12]
  TGI: > 100 µM
[13]
  TGI: > 100 µM
[14]
  TGI: > 100 µM
[15]
  TGI: 69.5 µM
[16]
  TGI: > 100 µM
[17]
  TGI: > 100 µM
[18]
  TGI: > 100 µM
[19]
  TGI: > 100 µM
[20]
  TGI: > 100 µM
[21]
  TGI: > 100 µM
[22]
  TGI: > 100 µM
[23]
  TGI: > 100 µM
[24]
  TGI: > 100 µM
[25]
  TGI: > 100 µM
[26]
  TGI: > 100 µM
[27]
  TGI: > 100 µM
[28]
  TGI: > 100 µM
[29]
  TGI: > 100 µM
[30]
  TGI: > 100 µM
[31]
  TGI: > 100 µM
[32]
  TGI: > 100 µM
[33]
  TGI: > 100 µM
[34]
  TGI: > 100 µM
[35]
  TGI: > 100 µM
[36]
  TGI: > 100 µM
[37]
  TGI: > 100 µM
[38]
  TGI: > 100 µM
[39]
  TGI: > 100 µM
[40]
  TGI: > 100 µM
[41]
  TGI: > 100 µM
[42]
  TGI: > 100 µM
[43]
  TGI: > 100 µM
[44]
  TGI: > 100 µM
[45]
  TGI: > 100 µM
[46]
  TGI: > 100 µM
[47]
  TGI: > 100 µM
[48]
  TGI: > 100 µM
[49]
  TGI: > 100 µM
[50]
  TGI: > 100 µM
[51]
  TGI: > 100 µM
[52]
  TGI: > 100 µM
[53]
  TGI: > 100 µM
[54]
  TGI: > 100 µM
[55]
  TGI: > 100 µM
[56]
  TGI: > 100 µM
[57]
  TGI: > 100 µM

## C[C@]12CC[C@H]3[C@@H](CCC4=C[C@@H](OC5OCC(OC6OC(CO)C(O)C(O)C6O)C(O)C5O)CC[C@@]43C=O)[C@@]1(O)CCC2C1=CC(=O)OC1 (some centres undefined)
[1]
  TGI: 1.64 µM
[2]
  TGI: 0.646 µM
[3]
  TGI: > 100 µM
[4]
  TGI: 3.25 µM
[5]
  TGI: 0.346 µM
[6]
  TGI: 5.79 µM
[7]
  TGI: 9.23 µM
[8]
  TGI: 5.13 µM
[9]
  TGI: 9.62 µM
[10]
  TGI: 1.76 µM
[11]
  TGI: 0.534 µM
[12]
  TGI: 3.75 µM
[13]
  TGI: 3.45 µM
[14]
  TGI: 5.93 µM
[15]
  TGI: 2.88 µM
[16]
  TGI: 8.19 µM
[17]
  TGI: 2.79 µM
[18]
  TGI: > 73.7 µM
[19]
  TGI: 2.75 µM
[20]
  TGI: 1.23 µM
[21]
  TGI: 1.62 µM
[22]
  TGI: > 24.8 µM
[58]
  TGI: 1.38 µM
[23]
  TGI: 2.19 µM
[24]
  TGI: 1.08 µM
[25]
  TGI: 3.78 µM
[26]
  TGI: 3.03 µM
[27]
  TGI: 1.68 µM
[28]
  TGI: 13.9 µM
[29]
  TGI: > 100 µM
[30]
  TGI: 0.881 µM
[31]
  TGI: 2.76 µM
[32]
  TGI: 3.28 µM
[33]
  TGI: 2.66 µM
[34]
  TGI: 0.484 µM
[35]
  TGI: 1.84 µM
[38]
  TGI: 5.35 µM
[39]
  TGI: 1.43 µM
[40]
  TGI: 4.29 µM
[41]
  TGI: > 100 µM
[42]
  TGI: 1.07 µM
[43]
  TGI: 12.8 µM
[59]
  TGI: 11.9 µM
[44]
  TGI: 4.14 µM
[45]
  TGI: 2.99 µM
[46]
  TGI: 1.25 µM
[47]
  TGI: 3.53 µM
[48]
  TGI: 8.84 µM
[49]
  TGI: 3.71 µM
[50]
  TGI: 0.627 µM
[51]
  TGI: 2.96 µM
[52]
  TGI: 1.44 µM
[53]
  TGI: 2.25 µM
[54]
  TGI: 3.38 µM
[55]
  TGI: 1.2 µM
[56]
  TGI: 1.64 µM
[57]
  TGI: 2.01 µM

— PubChem BioAssay (NCI)
